According to PubChem BioAssay AID2060337 (Molecular Pharmacology Branch, DTP, NCI, 2025):

Test system: 832693-133-R-J1-PDC multi-cell spheroids, viability
Assay: Anticancer human tumor 832693-133-R-J1-PDC patient-derived head and neck squamous carcinoma cell line growth inhibition [IpAb]
Conditions: for IC50: curve of first compound; for viability, T/C: stronger effect = lower value
Source text: Combinatorial screen of targeted agents with ipatasertib and abemaciclib in multi-cell type tumor spheroids
A high-throughput screen of multi-cell type tumor spheroids was designed to identify active combinations of targeted small molecules and ipatasertib or abemaciclib. Complex spheroids include a stromal component modeled by human endothelial cells (HUVEC) and fibroblasts modeled by human mesenchymal stem cells (MSCs). The concentration ranges selected for each drug and investigational agent were based upon clinically achievable concentrations if the clinical Cmax of the agent was known.
Compounds. The drugs and investigational agents: ipatasertib (NSC767898), abemaciclib(NSC768073), selumetinib (NSC741078), trametinib (758246), adavosertib (NSC754352), everolimus (NSC733504), sapanisertib (NSC764658), vemurafenib (NSC761431), venetoclax (NSC766270), copanlisib (NSC809693), apelisib (NSC765974), palbociblib (NSC758247), vemurafenib (NSC761431), dabrafenib (NSC764134), ravoxertinib (NSC781343), BMS-387032 (NSC767048), sotorasib (NSC818433), talazoparib (NSC767125) and afursertib (NSC778305), were obtained from the National Cancer Institute (NCI) Developmental Therapeutics Program Chemical Repository. The FDA-approved anticancer drug set is available from the NCI Developmental Therapeutics Program. […] The stock solutions were prepared in dimethyl sulfoxide (DMSO, Sigma-Aldrich, St. Louis, MO, cat. D2650) at 800-fold the tested concentration and stored at -70 degrees C prior to their use. All drugs and investigational agents were tested over a range starting from a high concentration at or near the clinical Cmax and decreasing in half-log increments. If the clinical Cmax for an agent had not been determined, the highest concentration tested was 10 microM.
NCI60 Cell Culture. NCI60 cell lines were obtained from the NCI Developmental Therapeutics Program Tumor Repository. For each lot of cells, the Repository performed Applied Biosystems AmpFLSTR Identifiler testing with PCR amplification to confirm consistency with the published Identifier STR profile for each cell line. Cells were kept in continuous culture for no more than 20 passages. The optimal seeding densities for each of the cell lines at each time point assessed were determined prior to performing the concentration response studies. Briefly, the NCI60 human tumor lines were grown as monolayers in RPMI 1640 medium supplemented with 10% FBS and 2 mmol/L L-glutamine.
An additional 9 lines were from the NCI60 cell line panel including MDA-MB-231 breast carcinoma, MDA-MB-468 breast carcinoma, MCF7 breast carcinoma, Hs578T breast carcinoma, MALME-3M melanoma, SK-MEL-2 melanoma, SK-OV-3 ovarian carcinoma, DU-145 prostate carcinoma, PC-3 prostate carcinoma, all cell lines along with major genetic alterations are listed on Table 2. Pooled donor human umbilical vein endothelial cells (HUVEC, Lonza, cat. CC-2519) and human mesenchymal stem cells (hMSC, Lonza, cat. PT-2501) were purchased from Lonza (Walkersville, MD).
PDMR cell lines were grown in complete medium (DC medium): Dulbecco's modified Eagle's medium (DMEM)/F12 supplemented with 5% fetal bovine serum (FBS), 2 mM L-glutamine, 100 U/mL penicillin and 100 µg/ml streptomycin, 0.4 µg/ml hydrocortisone, 10 ng/ml epidermal growth factor (EGF) recombinant human protein, 24 µg/mL adenine, and 0.1 mg/mL primocin. During culture from frozen stock vials, PDMR cells were cultured in the same medium containing 10 µM Y-27632 (see Table 3). The PDCs were cultured in complete DMEM/F12 media without 10 microM Y-27632 dihydrochloride for at least two passages prior to the screen. The pooled donor HUVEC and hMSC were cultured in endothelial cell growth medium 2 (PromoCell, Heidelberg, Germany, cat. C-22011) and mesenchymal stem cell growth medium 2 (PromoCell, cat. C-28009), respectively. For all experiments, HUVEC and hMSC were used at passages </=5.
[…]
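Note: spheroids exposed to the drugs for one week before the viability readout.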
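Throughout, for viability, T/C: 100% = DMSO vehicle control wells.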

CC(C)(C)c1cnc(CSc2cnc(NC(=O)C3CCNCC3)s2)o1 + CCN1CCN(Cc2ccc(Nc3ncc(F)c(-c4cc(F)c5nc(C)n(C(C)C)c5c4)n3)nc2)CC1
IC50 (second compound 0.01 µM): 577 nM | IC50 (second compound 0.0316 µM): 223 nM | IC50 (second compound 0.1 µM): 161 nM | IC50 (second compound 0.316 µM): 149 nM | IC50 (second compound 1 µM): 134 nM | viability, T/C (second compound 0.01 µM, first compound 0.00949 µM): 107% | viability, T/C (second compound 0.01 µM, first compound 0.03 µM): 125% | viability, T/C (second compound 0.01 µM, first compound 0.0949 µM): 157% | viability, T/C (second compound 0.01 µM, first compound 0.3 µM): 114% | viability, T/C (second compound 0.01 µM, first compound 0.949 µM): 0.93% | viability, T/C (second compound 0.01 µM, first compound 3 µM): 1.32% | viability, T/C (second compound 0.0316 µM, first compound 0.00949 µM): 97.8% | viability, T/C (second compound 0.0316 µM, first compound 0.03 µM): 112% | viability, T/C (second compound 0.0316 µM, first compound 0.0949 µM): 133% | viability, T/C (second compound 0.0316 µM, first compound 0.3 µM): 27.8% | viability, T/C (second compound 0.0316 µM, first compound 0.949 µM): 0.9% | viability, T/C (second compound 0.0316 µM, first compound 3 µM): 1.39% | viability, T/C (second compound 0.1 µM, first compound 0.00949 µM): 73.8% | viability, T/C (second compound 0.1 µM, first compound 0.03 µM): 93.5% | viability, T/C (second compound 0.1 µM, first compound 0.0949 µM): 104% | viability, T/C (second compound 0.1 µM, first compound 0.3 µM): 6.06% | viability, T/C (second compound 0.1 µM, first compound 0.949 µM): 0.75% | viability, T/C (second compound 0.1 µM, first compound 3 µM): 1.11% | viability, T/C (second compound 0.316 µM, first compound 0.00949 µM): 66.7% | viability, T/C (second compound 0.316 µM, first compound 0.03 µM): 77.5% | viability, T/C (second compound 0.316 µM, first compound 0.0949 µM): 100% | viability, T/C (second compound 0.316 µM, first compound 0.3 µM): 1.34% | viability, T/C (second compound 0.316 µM, first compound 0.949 µM): 1.19% | viability, T/C (second compound 0.316 µM, first compound 3 µM): 1.26% | viability, T/C (second compound 1 µM, first compound 0.00949 µM): 67.9% | viability, T/C (second compound 1 µM, first compound 0.03 µM): 81.3% | viability, T/C (second compound 1 µM, first compound 0.0949 µM): 70.7% | viability, T/C (second compound 1 µM, first compound 0.3 µM): 1.74% | viability, T/C (second compound 1 µM, first compound 0.949 µM): 1.59% | viability, T/C (second compound 1 µM, first compound 3 µM): 1.53%

CC1(C)CCC(CN2CCN(c3ccc(C(=O)NS(=O)(=O)c4ccc(NCC5CCOCC5)c([N+](=O)[O-])c4)c(Oc4cnc5[nH]ccc5c4)c3)CC2)=C(c2ccc(Cl)cc2)C1 + CCN1CCN(Cc2ccc(Nc3ncc(F)c(-c4cc(F)c5nc(C)n(C(C)C)c5c4)n3)nc2)CC1
IC50 (second compound 0.01 µM): 5410 nM | IC50 (second compound 0.0316 µM): 6550 nM | IC50 (second compound 0.1 µM): 4190 nM | IC50 (second compound 0.316 µM): 4120 nM | IC50 (second compound 1 µM): 4600 nM | viability, T/C (second compound 0.01 µM, first compound 0.0316 µM): 93.7% | viability, T/C (second compound 0.01 µM, first compound 0.1 µM): 104% | viability, T/C (second compound 0.01 µM, first compound 0.316 µM): 102% | viability, T/C (second compound 0.01 µM, first compound 1 µM): 96.1% | viability, T/C (second compound 0.01 µM, first compound 3.16 µM): 75.2% | viability, T/C (second compound 0.01 µM, first compound 10 µM): 21.2% | viability, T/C (second compound 0.0316 µM, first compound 0.0316 µM): 89% | viability, T/C (second compound 0.0316 µM, first compound 0.1 µM): 93.9% | viability, T/C (second compound 0.0316 µM, first compound 0.316 µM): 85.8% | viability, T/C (second compound 0.0316 µM, first compound 1 µM): 86.5% | viability, T/C (second compound 0.0316 µM, first compound 3.16 µM): 83.6% | viability, T/C (second compound 0.0316 µM, first compound 10 µM): 30.4% | viability, T/C (second compound 0.1 µM, first compound 0.0316 µM): 73.1% | viability, T/C (second compound 0.1 µM, first compound 0.1 µM): 69% | viability, T/C (second compound 0.1 µM, first compound 0.316 µM): 78.1% | viability, T/C (second compound 0.1 µM, first compound 1 µM): 71.2% | viability, T/C (second compound 0.1 µM, first compound 3.16 µM): 60.4% | viability, T/C (second compound 0.1 µM, first compound 10 µM): 17.7% | viability, T/C (second compound 0.316 µM, first compound 0.0316 µM): 55.6% | viability, T/C (second compound 0.316 µM, first compound 0.1 µM): 61% | viability, T/C (second compound 0.316 µM, first compound 0.316 µM): 51.9% | viability, T/C (second compound 0.316 µM, first compound 1 µM): 67.3% | viability, T/C (second compound 0.316 µM, first compound 3.16 µM): 75.5% | viability, T/C (second compound 0.316 µM, first compound 10 µM): 9.24% | viability, T/C (second compound 1 µM, first compound 0.0316 µM): 63.9% | viability, T/C (second compound 1 µM, first compound 0.1 µM): 72.1% | viability, T/C (second compound 1 µM, first compound 0.316 µM): 80.2% | viability, T/C (second compound 1 µM, first compound 1 µM): 68.5% | viability, T/C (second compound 1 µM, first compound 3.16 µM): 72.9% | viability, T/C (second compound 1 µM, first compound 10 µM): 5.47%
